Consider 32 molecules from ChEMBL document CHEMBL2163268, “Structure-based design of a novel series of potent, selective inhibitors of the class I phosphatidylinositol 3-kinases” (J Med Chem, 2012).

Bounds are passed on as bounds.

For data set [1], the target named is T1, Phosphatidylinositol 4,5-bisphosphate 3-kinase catalytic subunit delta isoform (Homo sapiens, UniProt O00329).
T1 sequence (O00329 whole entry): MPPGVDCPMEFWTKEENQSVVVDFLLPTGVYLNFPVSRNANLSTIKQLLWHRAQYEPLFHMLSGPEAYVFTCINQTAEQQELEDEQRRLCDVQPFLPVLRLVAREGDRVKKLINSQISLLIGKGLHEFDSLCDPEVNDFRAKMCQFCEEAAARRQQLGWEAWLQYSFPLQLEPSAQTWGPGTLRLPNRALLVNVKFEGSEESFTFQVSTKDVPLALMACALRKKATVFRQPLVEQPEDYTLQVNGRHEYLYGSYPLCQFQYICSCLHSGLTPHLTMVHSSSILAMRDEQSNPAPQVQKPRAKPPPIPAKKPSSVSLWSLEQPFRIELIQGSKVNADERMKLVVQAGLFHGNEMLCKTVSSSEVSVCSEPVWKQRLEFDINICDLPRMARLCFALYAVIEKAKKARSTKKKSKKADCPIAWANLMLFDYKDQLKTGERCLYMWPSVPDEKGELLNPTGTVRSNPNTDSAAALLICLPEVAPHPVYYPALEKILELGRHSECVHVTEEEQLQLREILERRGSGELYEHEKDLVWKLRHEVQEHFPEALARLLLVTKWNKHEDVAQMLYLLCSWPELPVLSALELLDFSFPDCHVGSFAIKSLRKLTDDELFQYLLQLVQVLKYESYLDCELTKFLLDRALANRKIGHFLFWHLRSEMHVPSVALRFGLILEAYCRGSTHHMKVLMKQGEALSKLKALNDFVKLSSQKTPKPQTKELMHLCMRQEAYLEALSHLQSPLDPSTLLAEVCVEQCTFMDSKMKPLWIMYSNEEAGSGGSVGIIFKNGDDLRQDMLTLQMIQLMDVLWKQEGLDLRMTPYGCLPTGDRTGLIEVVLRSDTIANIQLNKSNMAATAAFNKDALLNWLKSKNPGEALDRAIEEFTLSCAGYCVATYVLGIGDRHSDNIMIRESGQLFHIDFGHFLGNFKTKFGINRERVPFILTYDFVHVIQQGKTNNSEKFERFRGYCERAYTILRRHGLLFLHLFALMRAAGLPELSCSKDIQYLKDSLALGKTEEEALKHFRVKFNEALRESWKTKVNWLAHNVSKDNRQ
Briefly: biochemical.
Description: Inhibition of human N-terminal poly-His tagged-PI3Kdelta expressed in Sf9 baculovirus system co-expressing p85alpha after 20 mins by AlphaScreen assay

Data set [2] addresses Phosphatidylinositol 4,5-bisphosphate 3-kinase catalytic subunit gamma isoform (Homo sapiens, UniProt P48736). Briefly: biochemical.
Description: Inhibition of human N-terminal poly-His tagged-PI3Kgamma expressed in Sf9 baculovirus system co-expressing p85alpha after 20 mins by AlphaScreen assay
For data set [3], the target named is Phosphatidylinositol 4,5-bisphosphate 3-kinase catalytic subunit beta isoform (Homo sapiens, UniProt P42338). In words: biochemical.
Phosphatidylinositol 4,5-bisphosphate 3-kinase catalytic subunit beta isoform, sequence (P42338 whole entry, canonical isoform): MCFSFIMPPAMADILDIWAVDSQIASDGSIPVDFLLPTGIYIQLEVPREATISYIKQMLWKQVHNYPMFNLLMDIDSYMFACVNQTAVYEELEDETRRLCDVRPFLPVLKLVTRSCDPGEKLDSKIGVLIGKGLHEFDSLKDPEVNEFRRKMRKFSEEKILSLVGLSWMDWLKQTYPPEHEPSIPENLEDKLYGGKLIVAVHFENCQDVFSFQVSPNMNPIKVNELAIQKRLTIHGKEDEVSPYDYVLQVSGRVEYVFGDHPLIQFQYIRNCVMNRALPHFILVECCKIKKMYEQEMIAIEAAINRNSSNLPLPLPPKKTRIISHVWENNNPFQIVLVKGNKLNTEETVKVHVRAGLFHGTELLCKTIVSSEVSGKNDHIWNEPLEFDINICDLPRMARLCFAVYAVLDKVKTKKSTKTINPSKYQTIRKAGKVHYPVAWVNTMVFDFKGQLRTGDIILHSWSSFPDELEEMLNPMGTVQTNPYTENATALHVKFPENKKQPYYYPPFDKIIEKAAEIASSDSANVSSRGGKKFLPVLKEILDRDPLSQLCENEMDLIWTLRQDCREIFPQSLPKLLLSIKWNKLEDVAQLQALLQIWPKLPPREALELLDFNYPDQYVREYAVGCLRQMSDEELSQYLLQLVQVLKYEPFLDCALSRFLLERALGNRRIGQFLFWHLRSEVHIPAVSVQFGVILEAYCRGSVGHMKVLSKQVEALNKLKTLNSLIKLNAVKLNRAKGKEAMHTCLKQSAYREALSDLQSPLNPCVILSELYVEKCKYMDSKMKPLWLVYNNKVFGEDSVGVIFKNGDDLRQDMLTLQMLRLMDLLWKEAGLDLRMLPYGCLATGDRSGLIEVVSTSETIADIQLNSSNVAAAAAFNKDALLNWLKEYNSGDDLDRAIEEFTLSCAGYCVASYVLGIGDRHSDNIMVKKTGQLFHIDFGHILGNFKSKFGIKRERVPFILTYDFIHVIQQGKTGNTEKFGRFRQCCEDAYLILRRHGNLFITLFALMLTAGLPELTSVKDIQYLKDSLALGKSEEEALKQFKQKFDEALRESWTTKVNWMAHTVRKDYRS
Description: Inhibition of human N-terminal poly-His tagged-PI3Kbeta expressed in Sf9 baculovirus system co-expressing p85alpha after 20 mins by AlphaScreen assay
Another data set can be described thus: in vitro. The settings on record: rat, liver microsomes. On the technique in general: Liver microsomes are a subcellular fraction often used to study metabolism.
For data set [4], the target named is Serine/threonine-protein kinase mTOR (Homo sapiens, UniProt P42345).
Description: Inhibition of recombinant GST-tagged mTOR-mediated 4EBP1 phosphorylation after 90 mins by FRET assay
The target in data set [5] is Phosphatidylinositol 4,5-bisphosphate 3-kinase catalytic subunit alpha isoform (Homo sapiens, UniProt P42336). Briefly: biochemical.
Phosphatidylinositol 4,5-bisphosphate 3-kinase catalytic subunit alpha isoform, sequence (P42336 whole entry, canonical isoform): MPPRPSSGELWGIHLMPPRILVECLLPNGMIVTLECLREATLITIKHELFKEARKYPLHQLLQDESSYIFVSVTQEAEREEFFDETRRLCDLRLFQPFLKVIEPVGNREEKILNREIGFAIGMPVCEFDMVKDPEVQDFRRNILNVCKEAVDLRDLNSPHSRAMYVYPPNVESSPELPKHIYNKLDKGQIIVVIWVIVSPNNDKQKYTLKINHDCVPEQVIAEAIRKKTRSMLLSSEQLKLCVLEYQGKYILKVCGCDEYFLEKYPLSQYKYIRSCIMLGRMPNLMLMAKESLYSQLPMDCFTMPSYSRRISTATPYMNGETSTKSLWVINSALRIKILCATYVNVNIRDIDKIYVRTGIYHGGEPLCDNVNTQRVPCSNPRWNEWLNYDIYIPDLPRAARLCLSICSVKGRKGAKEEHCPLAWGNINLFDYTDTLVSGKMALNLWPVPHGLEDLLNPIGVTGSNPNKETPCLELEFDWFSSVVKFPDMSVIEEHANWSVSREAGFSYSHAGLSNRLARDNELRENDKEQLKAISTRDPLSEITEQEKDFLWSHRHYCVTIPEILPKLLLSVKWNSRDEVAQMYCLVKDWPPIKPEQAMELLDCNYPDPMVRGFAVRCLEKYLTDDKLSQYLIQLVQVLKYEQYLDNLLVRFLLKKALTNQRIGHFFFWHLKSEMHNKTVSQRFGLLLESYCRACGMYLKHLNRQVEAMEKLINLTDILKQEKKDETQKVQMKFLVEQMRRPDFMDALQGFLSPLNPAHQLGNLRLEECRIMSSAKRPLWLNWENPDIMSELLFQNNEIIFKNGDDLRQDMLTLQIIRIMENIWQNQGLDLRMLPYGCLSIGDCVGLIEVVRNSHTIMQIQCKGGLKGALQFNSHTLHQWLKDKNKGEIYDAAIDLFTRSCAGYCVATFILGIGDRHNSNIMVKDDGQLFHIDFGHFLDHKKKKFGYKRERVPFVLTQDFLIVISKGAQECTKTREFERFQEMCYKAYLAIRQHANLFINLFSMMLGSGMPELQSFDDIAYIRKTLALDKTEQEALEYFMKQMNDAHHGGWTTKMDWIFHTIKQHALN
Description: Inhibition of human N-terminal poly-His tagged-PI3Kalpha expressed in Sf9 baculovirus system co-expressing p85alpha after 20 mins by AlphaScreen assay

Phosphatidylinositol 4,5-bisphosphate 3-kinase catalytic subunit gamma isoform, sequence (P48736 whole entry, canonical isoform): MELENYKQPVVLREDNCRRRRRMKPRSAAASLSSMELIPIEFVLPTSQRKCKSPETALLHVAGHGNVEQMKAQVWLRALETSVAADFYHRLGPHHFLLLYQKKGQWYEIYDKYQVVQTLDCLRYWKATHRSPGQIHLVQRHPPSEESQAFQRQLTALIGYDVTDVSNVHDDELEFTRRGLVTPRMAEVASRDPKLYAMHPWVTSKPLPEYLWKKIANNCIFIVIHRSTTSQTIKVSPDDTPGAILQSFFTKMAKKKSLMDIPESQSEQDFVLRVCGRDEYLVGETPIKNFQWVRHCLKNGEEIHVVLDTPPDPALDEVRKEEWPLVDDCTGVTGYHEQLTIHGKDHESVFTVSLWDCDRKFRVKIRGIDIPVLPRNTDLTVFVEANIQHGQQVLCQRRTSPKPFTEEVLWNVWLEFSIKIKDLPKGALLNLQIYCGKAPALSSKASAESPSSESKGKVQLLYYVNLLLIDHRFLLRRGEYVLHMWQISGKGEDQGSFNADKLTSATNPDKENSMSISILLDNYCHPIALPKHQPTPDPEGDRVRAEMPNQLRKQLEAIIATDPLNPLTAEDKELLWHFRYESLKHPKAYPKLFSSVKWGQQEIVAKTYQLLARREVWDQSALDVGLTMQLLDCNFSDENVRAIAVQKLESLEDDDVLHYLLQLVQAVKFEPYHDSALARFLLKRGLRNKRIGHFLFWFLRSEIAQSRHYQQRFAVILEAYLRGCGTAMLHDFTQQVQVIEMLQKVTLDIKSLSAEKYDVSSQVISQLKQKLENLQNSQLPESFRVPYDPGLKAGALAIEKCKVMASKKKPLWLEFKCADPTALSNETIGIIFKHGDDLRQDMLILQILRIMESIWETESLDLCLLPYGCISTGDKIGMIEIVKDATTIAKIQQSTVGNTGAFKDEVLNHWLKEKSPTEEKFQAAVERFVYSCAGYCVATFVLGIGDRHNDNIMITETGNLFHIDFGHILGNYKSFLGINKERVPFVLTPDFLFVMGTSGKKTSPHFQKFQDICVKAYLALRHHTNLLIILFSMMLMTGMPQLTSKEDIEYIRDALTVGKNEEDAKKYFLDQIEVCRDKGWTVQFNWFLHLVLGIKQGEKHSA
Description for in vitro: Intrinsic clearance in rat liver microsomes

With `COc1ccc(Nc2ncc(CN3CCC(O)CC3)cc2-c2nc(C)nc(N)n2)cn1`, the figures for the Ki in data set [1], in data set [2] and in data set [3] were 63 nM, 110 nM and 41 nM, respectively. For the same molecule, the microsomal CLint (commonly the rate of metabolic loss divided by the concentration) in the data set “in vitro” is 23 µL/min/mg.

On to `COc1ccc(Nc2ncc(N3CCN(C)CC3)cc2-c2nc(C)nc(N)n2)cn1`, for which the Ki (commonly the equilibrium dissociation constant of an inhibitor or competing ligand from its target) in data set [1] amounted to 16 nM; in data set [2] it was 21 nM; in data set [3], 7 nM; in data set [5] it was 39 nM. Moreover, the IC50 (commonly the concentration that inhibits the measured activity by half) in data set [4] turned out to be 1400 nM. The same molecule displayed a microsomal CLint in “in vitro” of 23 µL/min/mg.

Turning to `COc1ccc(Nc2ncc(Br)cc2-c2nc(C)nc(N)n2)cn1`, the Ki in data set [1] came out at 92 nM; in data set [2] it was 22 nM; in data set [3], 75 nM. Besides, in the data set “in vitro”, the microsomal CLint turned out to be 111 µL/min/mg.

With `COc1ccc(Nc2ncc(-c3cnn(C)c3)cc2-c2nc(C)nc(N)n2)cn1`, the Ki in data set [1], in data set [2] and in data set [3] was 6 nM throughout. Also, in “in vitro”, the microsomal CLint amounted to 24 µL/min/mg.

On to `COc1ccc(Nc2ncc(Cl)cc2-c2nc(C)nc(N)n2)cn1`, for which the Ki in data set [1] was determined as 39 nM; in data set [2] it was 40 nM; in data set [3], 38 nM; in data set [5], 290 nM. Further, the microsomal CLint in the data set “in vitro” was determined as 58 µL/min/mg.

As for `COCc1cnc(Nc2ccc(OC)nc2)c(-c2nc(C)nc(N)n2)c1`, the Ki in data set [1] is 10 nM; in data set [2], 9 nM; in data set [3], 20 nM; in data set [5] it was 49 nM. Further, the IC50 in data set [4] was > 10000 nM. Further, the microsomal CLint in the data set “in vitro” is 58 µL/min/mg.

As to `COc1ccc(Nc2ncc(CN3CC[C@@H](CO)C3)cc2-c2nc(C)nc(N)n2)cn1`, the Ki in data set [1] is 51 nM; in data set [2], 100 nM; in data set [3] it was 59 nM. The microsomal CLint in “in vitro” turned out to be 20 µL/min/mg.

In the case of `COc1ccc(Nc2ncc(CN3CCN(C)CC3)cc2-c2nc(C)nc(N)n2)cn1`, the Ki amounted to 34 nM in data set [1], 130 nM in data set [2] and 44 nM in data set [3]. For the same molecule, the microsomal CLint in the data set “in vitro” was 48 µL/min/mg.

For the molecule `COc1ccc(Nc2ncc(CN3CCNCC3)cc2-c2nc(C)nc(N)n2)cn1`, the results for the Ki in data set [1], in data set [2] and in data set [3] were 27 nM, 200 nM and 17 nM, respectively. Besides, the microsomal CLint in “in vitro” was 35 µL/min/mg.

Regarding `COCCNCc1cnc(Nc2ccc(OC)nc2)c(-c2nc(C)nc(N)n2)c1`, the Ki was found to be 30 nM in data set [1], 99 nM in data set [2] and 67 nM in data set [3]. In the data set “in vitro”, this molecule returned a microsomal CLint of 31 µL/min/mg.

Take `COc1ccc(Nc2ncc(CN3CCCN(S(C)(=O)=O)CC3)cc2-c2nc(C)nc(N)n2)cn1`: the Ki in data set [1] was determined as 21 nM; in data set [2] it was 46 nM; in data set [3], 61 nM; in data set [5] it was 33 nM. Also, the IC50 in data set [4] was > 10000 nM. This molecule also returned an intrinsic metabolic clearance (microsomal CLint) in the data set “in vitro” of 242 µL/min/mg.

Regarding `COC(=O)N1CCN(Cc2cnc(Nc3ccc(OC)nc3)c(-c3nc(C)nc(N)n3)c2)CC1`, the Ki was determined as 6 nM in data set [1], 18 nM in data set [2], 18 nM in data set [3] and 94 nM in data set [5]. Also, it took 3700 nM to reach half-maximal inhibition in data set [4] (IC50). Besides, the microsomal CLint in the data set “in vitro” was 20 µL/min/mg.

As for `COc1ccc(Nc2ncc(CN3CCCC3)cc2-c2nc(C)nc(N)n2)cn1`, the Ki in data set [1] was 60 nM; in data set [2], 210 nM; in data set [3] it was 65 nM. In the data set “in vitro”, this molecule yielded a microsomal CLint of 37 µL/min/mg.

Consider `COc1ccc(Nc2ncc(CN3CCN(S(=O)(=O)N(C)C)CC3)cc2-c2nc(C)nc(N)n2)cn1`, for which the results for the Ki in data set [1], in data set [2] and in data set [3] were 6 nM, 9 nM and 7 nM, respectively. Also, the microsomal CLint in the data set “in vitro” stood at 73 µL/min/mg.

For the molecule `COc1ccc(Nc2ncc(CN3CCC(S(C)(=O)=O)C3)cc2-c2nc(C)nc(N)n2)cn1` (racemic), the Ki in data set [1] amounted to 3 nM; in data set [2], 5 nM; in data set [3], 5 nM. Moreover, the microsomal CLint in “in vitro” was found to be 23 µL/min/mg.

As to `COc1ccc(Nc2ncc(CN3CCC3)cc2-c2nc(C)nc(N)n2)cn1`, the values for the Ki in data set [1], in data set [2] and in data set [3] were 50 nM, 140 nM and 22 nM, respectively. Moreover, in the data set “in vitro”, the microsomal CLint worked out at 37 µL/min/mg.

With `COc1ccc(Nc2ncc(Cc3ccccc3)cc2-c2nc(C)nc(N)n2)cn1`, the inhibition constant Ki in data set [1] worked out at 15 nM; in data set [2], 11 nM; in data set [3], 48 nM; in data set [5] it was 59 nM. The same molecule registered a microsomal CLint in the data set “in vitro” of 62 µL/min/mg.

Consider `COc1ccc(Nc2ncc(C3=CCOCC3)cc2-c2nc(C)nc(N)n2)cn1`, for which the Ki in data set [1] came to 2 nM; in data set [2] it was 2 nM; in data set [3], 3 nM. Besides, the microsomal CLint in “in vitro” was determined as 83 µL/min/mg.

For the molecule `COc1ccc(Nc2ncccc2-c2ncnc3nc[nH]c23)cn1`, the Ki in data set [1] is 5700 nM; in data set [2], 1100 nM; in data set [3], > 10000 nM; in data set [5] it was 8300 nM. The same molecule had a microsomal CLint in “in vitro” of 109 µL/min/mg.

In the case of `COc1ccc(Nc2ncc(CN3CCCCC3)cc2-c2nc(C)nc(N)n2)cn1`, the Ki came to 19 nM in data set [1], 80 nM in data set [2] and 11 nM in data set [3]. The molecule also came in with a microsomal CLint in “in vitro” of 51 µL/min/mg.

`Cc1nc(-c2cccnc2Nc2cccc3[nH]ccc23)c2[nH]cnc2n1`: the Ki in data set [1] was 360 nM; in data set [2], 23 nM; in data set [3], 130 nM. Besides, the IC50 in data set [4] came out at 560 nM. In the data set “in vitro”, this molecule gave a microsomal CLint of 90 µL/min/mg.

Turning to `COc1ccc(Nc2ncc(CN3CCOCC3)cc2-c2nc(C)nc(N)n2)cn1`, the Ki in data set [1] turned out to be 18 nM; in data set [2], 17 nM; in data set [3], 7 nM. Moreover, the microsomal CLint in “in vitro” was 31 µL/min/mg.

On to `COc1ccc(Nc2ncc(-c3ccc(C)nc3)cc2-c2nc(C)nc(N)n2)cn1`, for which the figures for the Ki in data set [1] and in data set [3] were 7 nM and 89 nM, respectively. Besides, the microsomal CLint in the data set “in vitro” was found to be 25 µL/min/mg.

On to `COc1ccc(Nc2ncc(CN3CCN(C(=O)N(C)C)CC3)cc2-c2nc(C)nc(N)n2)cn1`, for which the Ki in data set [1] worked out at 3 nM; in data set [2], 8 nM; in data set [3] it was 16 nM; in data set [5], 84 nM. In data set [4], this molecule displayed an IC50 of 1400 nM. This molecule returned a microsomal CLint in the data set “in vitro” of 17 µL/min/mg.

In the case of `COc1ccc(Nc2ncc(C)cc2-c2nc(C)nc(N)n2)cn1`, the Ki in data set [1] worked out at 110 nM; in data set [2], 54 nM; in data set [3], 86 nM. Moreover, the IC50 in data set [4] is > 10000 nM. Moreover, the microsomal CLint in “in vitro” was determined as 243 µL/min/mg.

With `COc1ccc(Nc2ncc(N3CCOCC3)cc2-c2nc(C)nc(N)n2)cn1`, the Ki was 4 nM in data set [1], 4 nM in data set [2], 9 nM in data set [3] and 22 nM in data set [5]. In addition, the IC50 in data set [4] is > 10000 nM. Moreover, in “in vitro”, the intrinsic clearance (microsomal CLint) came to 67 µL/min/mg.

`c1cnc(Nc2cccc3n[nH]cc23)c(-c2ncnc3nc[nH]c23)c1`: the results for the Ki in data set [1], in data set [3] and in data set [5] were > 10000 nM, 9700 nM and > 10000 nM, respectively. In addition, in data set [4], the IC50 is > 10000 nM. The microsomal CLint in “in vitro” amounted to 115 µL/min/mg.

Consider `COc1ccc(Nc2cnccc2-c2nc(C)nc(N)n2)cn1`, for which the Ki in data set [1] was 240 nM; in data set [2] it was 690 nM; in data set [3], 320 nM; in data set [5] it was 620 nM. In the data set “in vitro”, this molecule yielded a microsomal CLint of 133 µL/min/mg.

As for `COc1ccc(Nc2ncc(CN3CCS(=O)(=O)CC3)cc2-c2nc(C)nc(N)n2)cn1`, the Ki in data set [1] was determined as 13 nM; in data set [2], 30 nM; in data set [3], 13 nM; in data set [5], 73 nM. For the same molecule, the IC50 in data set [4] is > 10000 nM. Besides, the microsomal CLint in the data set “in vitro” stood at 21 µL/min/mg.

In the case of `COc1ccc(Nc2cccnc2-c2nc(C)nc(N)n2)cn1`, the Ki in data set [1] stood at 910 nM; in data set [2], 480 nM; in data set [3], 610 nM; in data set [5], 1300 nM. The IC50 in data set [4] was > 10000 nM. Also, the microsomal CLint in “in vitro” was 96 µL/min/mg.

In the case of `COc1cnc(Nc2ccc(OC)nc2)c(-c2nc(C)nc(N)n2)c1`, the Ki in data set [1] was found to be 7 nM; in data set [2], 9 nM; in data set [3] it was 15 nM. In “in vitro”, this molecule showed a microsomal CLint of 86 µL/min/mg.

In the case of `COc1ccc(Nc2ncc(CO)cc2-c2nc(C)nc(N)n2)cn1`, the Ki in data set [1] is 20 nM; in data set [2], 24 nM; in data set [3] it was 56 nM. In the data set “in vitro”, this molecule showed a microsomal CLint of 43 µL/min/mg.
